Assay [1] has as its target T1, rat CCR3 (Rattus norvegicus, UniProt O54814).
T1 sequence (O54814 1-359): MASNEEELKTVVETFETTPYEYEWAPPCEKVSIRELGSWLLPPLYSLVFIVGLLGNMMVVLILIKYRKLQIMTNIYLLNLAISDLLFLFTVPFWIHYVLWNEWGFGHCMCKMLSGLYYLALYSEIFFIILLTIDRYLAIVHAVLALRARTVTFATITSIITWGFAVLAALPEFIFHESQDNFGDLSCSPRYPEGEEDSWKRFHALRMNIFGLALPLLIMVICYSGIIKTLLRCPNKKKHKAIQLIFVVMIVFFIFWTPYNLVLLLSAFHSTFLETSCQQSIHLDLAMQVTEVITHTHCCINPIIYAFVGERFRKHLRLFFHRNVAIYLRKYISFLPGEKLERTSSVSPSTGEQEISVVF
Put plainly: receptor binding assay, rat CCR3. The protocol: (§1) Potencies for several other mammalian species were also determined in different assays. Species included cynomolgus (macaque) monkeys, mouse, rat, and canines.

The subject of assay [2] is subfoveal CNV secondary to wAMD. Description: single-arm, open-label clinical study in treatment-naïve wAMD patients, 4 week regimen. The format is in vivo, human. The following applies: 400 mg orally twice daily for 4 weeks. On the procedure: Patients with newly diagnosed (e.g. treatment-naïve) subfoveal CNV that was secondary to wAMD were entered into a single-arm, open-label study. Patients orally took 400 mg of the investigational drug of the invention b.o.d. (twice daily) for 4 weeks and had weekly scheduled visits with the physician. The regimen called for […]. After the end of treatment (EoT) or on withdrawal from the study medication, eligible patients could receive standard of care therapy (anti-VEGF therapy). Patients were followed up twice within 4 weeks after EoT. FIG. 2 is a depiction of the clinical trial design. Boxes V1, V2, V3, V4, and V5 indicate patient visits 1 through 5, respectively. Gaps between the boxes indicate the time in days between visits. The box labeled EoT indicates visit 6, or the end of treatment. Visits 7 and 8 occurred during the follow-up (FU) visits.
The primary endpoint was the change from baseline in central retinal thickness (CRT) as determined by spectral domain optical coherence tomography (SD-OCT) on day 29 (visit no. 6). For all primary and secondary endpoints, the value of the last assessment before first intake of study medication was used as the baseline on day 1 (visit no. 2).
CRT was reported as mean (SEM) in units of μm and time as visit number. The retinal layers and thickness was visualized and measured by SD-OCT, and to those having ordinary of skill in the art and trained using OCT equipment, visualization and measurement of the retinal layers involve well-known techniques. […]
The retinal vasculature of the study eye was evaluated via fluorescein angiography (FA). The change in neovascular leakage by FA was determined on Day 29 (visit 6) compared to baseline. […] N is the number of patients evaluated.
Visual acuity was determined using ETDRS charts over time of treatment. The absolute change in numbers of letters read by patients from their baseline levels was evaluated during visits. […]

The target in assay [3] is T2, mouse CCR3 (Mus musculus, UniProt P51678).
T2 sequence (P51678 1-359): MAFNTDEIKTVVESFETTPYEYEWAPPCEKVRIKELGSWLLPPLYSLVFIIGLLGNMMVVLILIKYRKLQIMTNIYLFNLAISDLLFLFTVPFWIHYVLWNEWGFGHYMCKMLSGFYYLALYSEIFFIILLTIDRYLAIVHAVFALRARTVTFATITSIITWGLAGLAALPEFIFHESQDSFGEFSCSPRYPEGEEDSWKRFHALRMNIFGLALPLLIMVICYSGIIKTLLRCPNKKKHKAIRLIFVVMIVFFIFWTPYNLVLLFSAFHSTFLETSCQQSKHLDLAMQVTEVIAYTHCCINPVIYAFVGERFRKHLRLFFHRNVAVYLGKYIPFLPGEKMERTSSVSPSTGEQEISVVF
Description: receptor binding assay, mouse CCR3. On the procedure:
as §1

Assay [4] deals with T3, human CCR3 (Homo sapiens, UniProt P51677).
T3 sequence (P51677 1-355): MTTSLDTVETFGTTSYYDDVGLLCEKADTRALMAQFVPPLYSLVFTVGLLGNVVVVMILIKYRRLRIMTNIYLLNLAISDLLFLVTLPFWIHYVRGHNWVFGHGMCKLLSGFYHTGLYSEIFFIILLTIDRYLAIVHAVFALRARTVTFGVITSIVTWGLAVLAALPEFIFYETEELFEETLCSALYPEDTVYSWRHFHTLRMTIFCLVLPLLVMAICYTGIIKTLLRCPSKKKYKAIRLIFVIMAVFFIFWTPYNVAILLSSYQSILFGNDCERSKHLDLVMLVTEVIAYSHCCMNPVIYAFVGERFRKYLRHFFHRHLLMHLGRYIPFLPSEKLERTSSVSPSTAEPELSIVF
Description: calcium influx assay using human CCR3-transfected CHEM1-Gα15 cells. The format is cell-based. The protocol:
(§2) The antagonistic potency of the investigational product of the invention was determined in several human CCR3-dependent assays (FIG. 1). […] IC50 for a calcium influx assay using human CCR3-transfected CHEM1-Gα15 cells was determined to be 0.9±0.2 nM.

Assay [5] concerns the target T3, human CCR3. Description: receptor binding assay, human CCR3. The protocol:
as §2

Assay [6] addresses T3, human CCR3. Description: human eotaxin-1 induced eosinophil shape change in human whole blood. The format is cell-based. As to conditions: read-out: IC50, antagonism of human eotaxin-1 induced eosinophil shape change. On the procedure:
as §2

As usually defined, the IC50 is the point on the concentration scale where inhibition reaches its midpoint. As a reminder, the Ki is the equilibrium dissociation constant of an inhibitor or competing ligand from its target. Low values mean higher affinity, high ones lower affinity.

Turning to `Cc1cc(C(=O)N(C)C)cc(NC(=O)[C@H]2CCC(=O)N2C2CCN(Cc3ccc(Cl)c(C)c3)CC2)n1` [investigational product of the invention], the 50% inhibitory concentration (IC50) turned out to be 1720 ± 130 nM in assay [1]; 87.3 ± 5.6 nM in assay [3]; 0.9 ± 0.2 nM in assay [4]; 4 ± 1.8 nM in assay [5]; 42.5 ± 43.5 nM in assay [6]. Moreover, the inhibitory constant (Ki) was determined as 1490 ± 128 nM in assay [1], 124.3 ± 0.9 nM in assay [3] and 3.2 ± 0.6 nM in assay [5]. Moreover, the “change from baseline in central retinal thickness (CRT) by SD-OCT” value in assay [2] (median or mean CRT through the treatment phase) is “no significant change from baseline”. In addition, the “change from baseline in neovascular leakage by fluorescein angiography” value in assay [2] (median or mean values through the treatment phase) is on record as “no significant change from baseline”. The “best corrected visual acuity (BCVA), change in letters read, ETDRS charts” value in assay [2] (subset of 8 out of 14 patients, compared to sham control and the larger patient group) is recorded as “significant improvement”.

Source of the values: US11590118B2, “Methods and compositions for treating retina-associated disease using CCR3-inhibitors” (ALKAHEST INC., priority 2017, dated 2023).
